Measurements as given in publication PMC12049414 (Nature Communications, 2025).

Molecular target: T1, human vesicular polyamine transporter (hVPAT) (Homo sapiens, UniProt Q6NT16)
T1 sequence (Q6NT16 1-456): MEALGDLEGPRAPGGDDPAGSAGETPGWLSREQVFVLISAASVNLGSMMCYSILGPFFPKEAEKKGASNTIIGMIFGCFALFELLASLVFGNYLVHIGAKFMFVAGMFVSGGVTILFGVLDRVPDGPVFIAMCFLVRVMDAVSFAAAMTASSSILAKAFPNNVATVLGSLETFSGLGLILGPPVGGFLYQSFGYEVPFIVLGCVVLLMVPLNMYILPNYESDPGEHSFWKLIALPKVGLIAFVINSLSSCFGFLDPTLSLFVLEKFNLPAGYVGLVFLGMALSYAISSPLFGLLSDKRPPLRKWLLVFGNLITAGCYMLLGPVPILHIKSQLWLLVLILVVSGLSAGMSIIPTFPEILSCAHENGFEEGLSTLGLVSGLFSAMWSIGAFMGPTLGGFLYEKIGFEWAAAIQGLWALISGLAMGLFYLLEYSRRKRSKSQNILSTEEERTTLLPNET
Assay: cryo-EM structure at […] Å
Assay type: biochemical

Ki: 2000 nM
Compound: COc1cc2c(cc1OC)C1CC(=O)C(CC(C)C)CN1CC2 (stereo not shown) [TBZ, tetrabenazine]
